pIC50: −log10 of the molar value.
Experiments:
KRAS(G12D)/SOS1 = target: T1, KRAS(G12D)/SOS1 (Homo sapiens, UniProt P01116, G12D); assay: KRAS(G12D)/SOS1 Homogeneous Time-Resolved Fluorescence (HTRF) Assay; format: binding; details: absence of GTP, 4° C., 3 hr
T1 construct: purchased Cisbio 63ADK000CB16PEG
Procedure: 3-fold serial dilutions of each test compound were prepared ranging from 20 μM to 1.02 nM. The test compound was mixed and incubated with reaction components, incubated in a sealed plate at 4° C. for 3 hr and fluorescence was measured using a PerkinElmer Envision plate reader. The % inhibition and IC50 values (the concentration at which 50% of the maximal inhibition occurs) were calculated and plotted using GraphPad Prism 7 software.

AGS = assay: CellTiter-Glo Reagent cancer cell line proliferation assay, AGS; format: cell-based, human; details: Homo sapiens, 24 h, KRAS(G12D) heterozygous
Method in brief: (§1)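 Cells were seeded at 4,000 per well, grown 24 hr at 37° C./5% CO2, then exposed 24 hr to 3-fold dilutions from 20 μM to 1.02 nM (0.5% DMSO final). Viability was read with CellTiter-Glo luminescence, and IC50 values were calculated.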

A427 = assay: CellTiter-Glo Reagent cancer cell line proliferation assay, A427; format: cell-based; details: Homo sapiens, A-427; A427, KRAS(G12D) heterozygous, 24 hr
Description: (§2) The following cancer cell lines were employed: • AsPC-1 human pancreatic adenocarcinoma, homozygous KRAS(G12D), (ATCC, #CRL-1682); A-427 human lung carcinoma, heterozygous KRAS(G12D), (ATCC, #HTB-53); AGS human gastric adenocarcinoma, heterozygous KRAS(G12D), (ATCC, #CRL-1739); GP2D human colon adenocarcinoma, heterozygous KRAS(G12D), (Sigma Aldrich, 95090714); SW1990 human pancreatic adenocarcinoma, homozygous KRAS(G12D), (ATCC, #CRL2172); LU65A human lung giant cell carcinoma, heterozygous KRAS(G12C), (JCRB Cell Bank, #JCRB0054); NCIH727 human lung carcinoid, heterozygous KRAS(G12V), (ATCC, #CRL-5815); MKN1 human gastric adenosquamous carcinoma KRAS (wt), (JCRB Cell Bank, #JCRB0252). Cell lines were cultured according to ATCC, JCRB and Sigma Aldrich recommendations.
(§3) Cells were plated in 96-well tissue culture plates at 4,000 cells/well and incubated at 37° C./5% CO2 for 24 hr in 100 μl of media. 3-fold serial dilutions of each test compound were prepared ranging from 20 μM to 1.02 nM. Cells were then treated with test compounds at various concentrations with a final concentration of 0.5% DMSO/well, and then incubated at 37° C./5% CO2 for 24 hr. 100 μl of CellTiter-Glo® Reagent (Promega Corporation, Madison, WI) was added to each well and processed according manufacturer's protocol. Results were analyzed and IC50-values were calculated in GraphPad 7 software.

ASPC-1 = assay: CellTiter-Glo Reagent cancer cell line proliferation assay, ASPC-1; format: cell-based; details: Homo sapiens, ASPC1; ASPC-1, KRAS(G12D) homozygous, 24 hr
Description: as §2, §3

SW1990 = assay: CellTiter-Glo Reagent cancer cell line proliferation assay, SW1990; format: cell-based; details: Homo sapiens; SW1990, KRAS(G12D) homozygous, 24 hr
Description: as §2, §3

GP2D = assay: CellTiter-Glo Reagent cancer cell line proliferation assay, GP2D; format: cell-based; details: Homo sapiens, KRAS(G12D) heterozygous, 24 hr
Method in brief: as §1

KRAS(G12D) = KRAS(G12D) (Homo sapiens, UniProt P01116, G12D); assay: cell-based; format: cell-based; design: Cell lines SW1990 and GP2D that express KRAS(G12D); host or cells: SW1990; details: for Dmax: SW1990, read-out: WB data SW1990 DMax; for DC50: read-out: WB data SW1990 DC50, SW1990, KRAS degradation, 24 hr
Procedure: Cell lines were cultured according to ATCC, JCRB and Sigma Aldrich recommendations.
Cells were then washed with cold PBS, aspirated and cold RIPA buffer containing a protease/phosphatase inhibitor cocktail was added to lyse cells. After centrifugation, the total protein concentrations of cell lysates were determined using the BCA protein assay. Samples were normalized for equivalent protein concentrations, 5× SDS-PAGE loading buffer added and denatured at 100° C. for 10 min. 20 μl of each sample/well was loaded on a SDS-PAGE gel and electrophoresed for 20 min at 80 V, then 120 V for 1.5 hr. Gels were then electroblotted to nitrocellulose membranes using a wet-transfer method at 250 mA for 2.5 hr. Membranes were incubated with blocking buffer for 1 hr and washed 3 times with TBST for 5 min. Membranes were then incubated with anti-KRAS (Sigma-Aldrich, #SAB1404011) and anti-β-Actin monoclonal antibodies (Cell Signaling Technology, #3700) diluted in blocking buffer at 4° C. overnight per the manufacturer's recommendations. After washing 3 times, blots were incubated with appropriately labeled secondary antibodies for 1 hr at room temperature and washed again. Fluorescence imaging and quantitation was performed using a LI-COR Odyssey. Results was analyzed using GraphPad Prism 7 software. Compound concentrations that induced KRAS degradation (DC50 and DCmax) were calculated using GraphPad Prism 7 software.

T1 sequence (P01116 1-188 isoform P01116-2 G12D): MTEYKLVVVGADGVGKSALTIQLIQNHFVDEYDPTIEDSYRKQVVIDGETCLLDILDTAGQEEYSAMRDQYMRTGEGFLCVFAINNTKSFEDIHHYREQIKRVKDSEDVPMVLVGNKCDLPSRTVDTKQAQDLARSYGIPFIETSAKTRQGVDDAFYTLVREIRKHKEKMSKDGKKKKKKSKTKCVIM
Sequence of KRAS(G12D) (P01116 1-188 isoform P01116-2 G12D): as above

Compound | pIC50 (KRAS(G12D)/SOS1) | pIC50 (AGS) | pIC50 (A427) | pIC50 (ASPC-1) | pIC50 (SW1990) | pIC50 (GP2D) | Dmax (KRAS(G12D)) [%] | DC50 (KRAS(G12D)) [nM]
CN1C[C@H](N2CCC(C(=O)NCCOc3ccc4c(c3)C(=O)N(C3CCC(=O)NC3=O)C4=O)CC2)C[C@@H]1COc1nc(N2CC3CCC(C2)N3)c2cnc(-c3cc(O)cc4ccccc34)c(F)c2n1 (some centres unmarked) [Compound 23] | > 7.00 | < 6.00 | < 6.00 |  |  |  |  | 
C#Cc1c(F)ccc2cc(O)cc(-c3ncc4c(N5CC6CCC(C5)N6)nc(OCC5(CN6CCN(CC7CCN(c8ccc9c(c8)CN(C8CCC(=O)NC8=O)C9=O)CC7)CC6)CC5)nc4c3F)c12 (centres unmarked) [Compound 43] | > 7.00 | > 7.00 | > 7.00 | > 7.00 | > 7.00 | > 7.00 | > 50 | < 100
C#Cc1c(F)ccc2cc(O)cc(-c3nc(OC)c4c(N5CC6CCC(C5)N6C(=O)C(F)(F)F)nc(OCC5(CN6CCC(CN7CCN(c8ccc9c(c8)CN(C8CCC(=O)NC8=O)C9=O)CC7)CC6)CC5)nc4c3F)c12 (centres unmarked) [Compound 63] | > 7.00 | > 7.00 | < 6.00 | 6.00 to 7.00 | 6.00 to 7.00 | > 7.00 | 10 to 50 | 100 to 1000
C#Cc1cccc2cc(O)cc(-c3ncc4c(N5CC6CCC(C5)N6C(=O)C(F)(F)F)nc(OCC5(CN6CCN(CC7CCN(c8ccc9c(c8)CN(C8CCC(=O)NC8=O)C9=O)CC7)CC6)CC5)nc4c3F)c12 (centres unmarked) [Compound 57] |  | > 7.00 | 6.00 to 7.00 | 6.00 to 7.00 | 6.00 to 7.00 |  | 10 to 50 | > 1000
C#Cc1cccc2cccc(-c3ncc4c(N5CC6CCC(C5)N6)nc(OC[C@H]5CC[C@@H](CN6CCN(CC7CCN(c8cc9c(cc8F)C(=O)C(N8CCC(=O)NC8=O)C9=O)CC7)CC6)N5C)nc4c3F)c12 (some centres unmarked) [Compound 25] | > 7.00 | < 6.00 | < 6.00 |  |  |  |  | 

Now from value to molecule:

pIC50 (KRAS(G12D)/SOS1) | pIC50 (AGS) | pIC50 (A427) | pIC50 (ASPC-1) | pIC50 (SW1990) | pIC50 (GP2D) | Dmax (KRAS(G12D)) [%] | DC50 (KRAS(G12D)) [nM] | Compound
> 7.00 | 6.00 to 7.00 | 6.00 to 7.00 | 6.00 to 7.00 | 6.00 to 7.00 |  |  |  | COc1nc(-c2cc(O)cc3ccccc23)c(F)c2nc(OCC3(CN4CCN(CC5CCN(c6ccc7c(c6)C(=O)N(C6CCC(=O)NC6=O)C7=O)CC5)CC4)CC3)nc(C3CC4CCC(C3)N4)c12 (centres unmarked) [Compound 36]
> 7.00 | > 7.00 | 6.00 to 7.00 |  | 6.00 to 7.00 |  | 10 to 50 | > 1000 | C#Cc1cccc2cc(O)cc(-c3ncc4c(N5CC6CCC(C5)N6)nc(OCC5(CN6CCN(CC7CCN(c8ccc9c(c8)C(=O)N(C8CCC(=O)N(C)C8=O)C9=O)CC7)CC6)CC5)nc4c3F)c12 (centres unmarked) [Compound 42]
> 7.00 | > 7.00 | 6.00 to 7.00 | > 7.00 | > 7.00 | > 7.00 | > 50 | < 100 | C#Cc1cccc2cc(O)cc(-c3ncc4c(N5CC6CCC(C5)N6)nc(OCC5(CN6CCN(CC7CCN(c8ccc9c(c8)n(C)c(=O)n9C8CCC(=O)NC8=O)CC7)CC6)CC5)nc4c3F)c12 (centres unmarked) [Compound 64]

From US20260325654A1, “METHODS AND COMPOSITIONS FOR TARGETED PROTEIN DEGRADATION” (Ranok Therapeutics (Hangzhou) Co. Ltd., priority 2023, published 2026)
